The experiment deals with T1, human GR (Homo sapiens, UniProt P04150).
T1 construct: naturally expresses the human GR; endogenous in cells
T1 sequence (P04150 1-777): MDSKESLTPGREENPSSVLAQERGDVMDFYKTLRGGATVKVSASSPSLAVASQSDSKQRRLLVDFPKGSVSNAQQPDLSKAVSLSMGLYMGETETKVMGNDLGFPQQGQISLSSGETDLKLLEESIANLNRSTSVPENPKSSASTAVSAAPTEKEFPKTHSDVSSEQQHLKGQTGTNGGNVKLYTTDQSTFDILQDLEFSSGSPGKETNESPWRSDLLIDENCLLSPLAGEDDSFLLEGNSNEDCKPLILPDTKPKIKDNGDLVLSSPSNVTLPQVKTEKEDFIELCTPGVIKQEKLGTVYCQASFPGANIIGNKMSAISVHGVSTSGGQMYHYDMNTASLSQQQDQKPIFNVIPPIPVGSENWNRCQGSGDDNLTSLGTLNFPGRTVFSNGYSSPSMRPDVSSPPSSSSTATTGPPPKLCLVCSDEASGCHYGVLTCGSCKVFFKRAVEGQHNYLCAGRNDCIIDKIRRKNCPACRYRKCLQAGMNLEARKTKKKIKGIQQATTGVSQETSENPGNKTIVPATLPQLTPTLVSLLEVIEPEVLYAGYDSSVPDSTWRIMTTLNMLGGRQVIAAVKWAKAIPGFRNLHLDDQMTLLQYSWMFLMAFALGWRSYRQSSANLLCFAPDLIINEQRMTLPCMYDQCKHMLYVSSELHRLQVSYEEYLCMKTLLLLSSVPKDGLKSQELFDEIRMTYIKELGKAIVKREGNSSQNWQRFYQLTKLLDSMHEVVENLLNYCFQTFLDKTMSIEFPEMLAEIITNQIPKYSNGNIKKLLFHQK
Description: Trans-Activation Modulation of Glucocorticoid Receptor Assay (GRAMMER), MMTV-LUC reporter in A549 cells. Particulars: for Transactivation A549 Cells GRAMMER Emax (%): Emax relative to the activity obtained with 300 nM dexamethasone; for EC50: inflection point (IP), MMTV-LUC reporter, read-out: Transactivation A549 Cells GRAMMER IP; for Emax: A549, Emax relative to the activity obtained with 300 nM dexamethasone, read-out: Transactivation A549 Cells GRAMMER Emax (%). The experiment is classed as cell-based. An excerpt:
This assay assesses the ability of test compounds to control transcription from the MMTV-LUC reporter gene in lung adenocarcinoma A549 cells or HeLa cells, a human […] cell line that naturally expresses the human GR. The assay measures induction of a modified MMTV LTR/promoter linked to the LUC reporter gene.
The routine transient assay consists of plating 7,000-25,000 cells/well of a white, clear-bottom 96-well plate. Alternatively, 384-well plates can be used at a cell concentration of 10,000/well. The media that the cells are plated in is “exponential growth medium” which consists of phenol red-free RPMI1640 containing 10% FBS, 4 mM L-glutamine, 20 mM HEPES, 10 ug/mL human insulin, and 20 ug/mL gentamicin. Incubator conditions are 37° C. and 5% CO2. The transfection is done in batch mode. The cells are trypsinized and counted to the right cell number in the proper amount of fresh media. It is then gently mixed with the FuGene6/DNA mix and plated onto the 96 or 384-well plate, all the wells receive 100 uL or 40 uL, respectively, of medium+lipid/DNA complex then incubated 37° C. overnight. The transfection cocktail consists of serum-free OptiMEM, FuGene6 reagent and DNA. The manufacturer's (Roche Biochemical) protocol for cocktail setup is as follows: The lipid to DNA ratio is approximately 2.5:1 and the incubation time is 20 min at room temperature. Sixteen to 24 hours after transfection, the cells are treated with dexamethasone to a final concentration of 10 nM as well as the compound of interest, such that final DMSO (vehicle) concentration is equal to or less than 1%. Each plate also contains samples that are treated with 10 nM dexamethasone alone, which is used as the 100% activity control. The cells are exposed to the compounds for 24 hours. After 24 hours, the cells are lysed by a Promega cell culture lysis buffer for approximately 30 min and then the luciferase activity in the extracts is assayed in the 96-well format luminometer. In 384-well format, Steady-Glo (Promega) or Steady-Lite (PerkinElmer) can be used by adding an equal volume of reagent to the media present in each well. Activity induced by 10 nM dexamethasone alone is set at 100% activity. Antagonist activity is calculated by determining the decrease in dexamethasone-induced activity in response to compound treatment relative to samples that were treated with dexamethasone alone. Results are expressed as % inhibition of 10 nM dexamethasone activity or as fold of 10 nM dexamethasone activity. This transactivation assay can be performed in an agonist and antagonist mode to identify these different activities.
Activity of test compounds is calculated as the Emax relative to the activity obtained with 300 nM dexamethasone. Activity of test compounds is calculated as the Emax relative to the activity obtained with 300 nM DEX. The exemplified tissue selective glucocorticoid receptor modulators of the present invention display agonist activity in this assay of greater than 5% and less than 100%, and maximal transactivation activity less then maximal transrepression activity. […]

The Emax is the maximal effect, on the per cent scale that the assay sets.

For `C[C@]12Cc3cnn(-c4ccc(F)cc4)c3C=C1CC[C@@]2(CO)CC(O)c1ccccn1` (single isomer, unassigned) [Example 1a], the “Transactivation A549 Cells GRAMMER Emax (%)” value worked out at 83.9% and the EC50 came to 5.6 nM.
For `C[C@]12Cc3cnn(-c4ccc(F)cc4)c3C=C1CC[C@@]2(CO)CC(O)c1ccccn1` (single isomer, unassigned) [Example 1b], in that order: 56.0% and 26.4 nM.
For `Cc1ccc(C(O)C[C@]2(CO)CCC3=Cc4c(cnn4-c4ccc(F)cc4)C[C@@]32C)cc1` (single isomer, unassigned) [Example 2a] the same measures were 46.6% and 485 nM.
As for `Cc1ccc(C(O)C[C@]2(CO)CCC3=Cc4c(cnn4-c4ccc(F)cc4)C[C@@]32C)cc1` (single isomer, unassigned) [Example 2b], the Emax turned out to be 45.5% and the EC50 turned out to be 316 nM.
For `C[C@]12Cc3cnn(-c4ccc(F)cc4)c3C=C1CC[C@@]2(CO)CC(O)c1ccccc1Cl` (single isomer, unassigned) [Example 3a], in that order: 127% and 38.8 nM.
On to `C[C@]12Cc3cnn(-c4ccc(F)cc4)c3C=C1CC[C@@]2(CO)CC(O)c1ccccc1Cl` (single isomer, unassigned) [Example 3b], for which the “Transactivation A549 Cells GRAMMER Emax (%)” value is 130.3% and the EC50 was 16.7 nM.
Regarding `Cc1cccc(C(O)C[C@]2(CO)CCC3=Cc4c(cnn4-c4ccc(F)cc4)C[C@@]32C)c1` (single isomer, unassigned) [Example 5a], the Emax was 65.5% and the EC50 stood at 78.8 nM.
`Cc1cccc(C(O)C[C@]2(CO)CCC3=Cc4c(cnn4-c4ccc(F)cc4)C[C@@]32C)c1` (single isomer, unassigned) [Example 5b]: the “Transactivation A549 Cells GRAMMER Emax (%)” value turned out to be 58.4% and the EC50 turned out to be 23.6 nM.
For `C[C@]12Cc3cnn(-c4ccc(F)cc4)c3C=C1CC[C@@]2(CO)CC(O)c1cc(F)cc(Cl)c1` (single isomer, unassigned) [Example 6a], in that order: 62.4% and 30.5 nM.
For `C[C@]12Cc3cnn(-c4ccc(F)cc4)c3C=C1CC[C@@]2(CO)CC(O)c1cc(F)cc(Cl)c1` (single isomer, unassigned) [Example 6b] the same measures were 84.7% and 124 nM.
Consider `C[C@]12Cc3cnn(-c4ccc(F)cc4)c3C=C1CC[C@@]2(CO)CC(O)c1cccc(C(F)(F)F)c1` (single isomer, unassigned) [Example 7a], for which the Emax was 60.2% and the EC50 was 58.8 nM.
As for `C[C@]12Cc3cnn(-c4ccc(F)cc4)c3C=C1CC[C@@]2(CO)CC(O)c1cccc(C(F)(F)F)c1` (single isomer, unassigned) [Example 7b], the “Transactivation A549 Cells GRAMMER Emax (%)” value was 55.8% and the EC50 is 39.3 nM.
`C[C@]12Cc3cnn(-c4ccc(F)cc4)c3C=C1CC[C@@]2(CO)CC(O)c1ncccc1F` (single isomer, unassigned) [Example 10a]: the Emax was 56.6% and the EC50 turned out to be 23.7 nM.
Consider `C[C@]12Cc3cnn(-c4ccc(F)cc4)c3C=C1CC[C@@]2(CO)CC(O)c1ncccc1F` (single isomer, unassigned) [Example 10b], for which the “Transactivation A549 Cells GRAMMER Emax (%)” value is listed as 67.0% and the EC50 was 12.4 nM.
Take `C[C@]12Cc3cnn(-c4ccc(F)cc4)c3C=C1CC[C@@]2(CO)CC1OC(=O)c2ccccc21` (single isomer, unassigned) [Example 12a]: the Emax amounted to 47.4% and the EC50 was found to be 127 nM.
Consider `C[C@]12Cc3cnn(-c4ccc(F)cc4)c3C=C1CC[C@@]2(CO)CC1OC(=O)c2ccccc21` (single isomer, unassigned) [Example 12b], for which the “Transactivation A549 Cells GRAMMER Emax (%)” value is recorded as 54.2% and the EC50 amounted to 33.3 nM.
For the compound `C[C@]12Cc3cnn(-c4ccc(F)cc4)c3C=C1CC[C@@]2(CO)CC(O)c1ccccc1` (single isomer, unassigned) [Example 13a], the Emax worked out at 73.1% and the EC50 is 8.8 nM.
As to `C[C@]12Cc3cnn(-c4ccc(F)cc4)c3C=C1CC[C@@]2(CO)CC(O)c1ccccc1` (single isomer, unassigned) [Example 13b], the “Transactivation A549 Cells GRAMMER Emax (%)” value is recorded as 57.5% and the EC50 was 7.2 nM.
In the case of `CC(C)C(O)C[C@]1(CO)CCC2=Cc3c(cnn3-c3ccc(F)cc3)C[C@@]21C` (single isomer, unassigned) [Example 14a], the Emax was 25% and the EC50 was found to be 479 nM.
For the compound `CC(C)C(O)C[C@]1(CO)CCC2=Cc3c(cnn3-c3ccc(F)cc3)C[C@@]21C` (single isomer, unassigned) [Example 14b], the “Transactivation A549 Cells GRAMMER Emax (%)” value is given as 32.6% and the EC50 was 206 nM.
Take `C[C@]12Cc3cnn(-c4ccc(F)cc4)c3C=C1CC[C@@]2(CO)CC(O)c1cccnc1` (single isomer, unassigned) [Example 15a]: the Emax stood at 52.7% and the EC50 turned out to be 68.1 nM.
Take `C[C@]12Cc3cnn(-c4ccc(F)cc4)c3C=C1CC[C@@]2(CO)CC(O)c1cccnc1` (single isomer, unassigned) [Example 15b]: the “Transactivation A549 Cells GRAMMER Emax (%)” value was 39.3% and the EC50 was determined as 149 nM.
On to `C[C@]12Cc3cnn(-c4ccc(F)cc4)c3C=C1CC[C@@]2(CO)CC(O)c1ccncc1` (single isomer, unassigned) [Example 17a], for which the Emax amounted to 26.4% and the EC50 was found to be 101 nM.
As for `C[C@]12Cc3cnn(-c4ccc(F)cc4)c3C=C1CC[C@@]2(CO)CC(O)c1ccncc1` (single isomer, unassigned) [Example 17b], the “Transactivation A549 Cells GRAMMER Emax (%)” value stood at 35.6% and the EC50 came to 77.5 nM.
Take `C[C@]12Cc3cnn(-c4ccc(F)cc4)c3C=C1CC[C@@]2(CO)CC(O)C1CCCCC1` (single isomer, unassigned) [Example 18a, 1-cyclohexyl-2-[(4αS)-1-(4-fluorophenyl)-5-(hydroxymethyl)-4α-methyl-1,4,4α,5,6,7-hexahydrocyclopenta[f]indazol-5-yl]ethanol]: the Emax is 55.3% and the EC50 stood at 22.3 nM.
`C[C@]12Cc3cnn(-c4ccc(F)cc4)c3C=C1CC[C@@]2(CO)CC(O)C1CCCCC1` (single isomer, unassigned) [Example 18b, 1-cyclohexyl-2-[(4αS)-1-(4-fluorophenyl)-5-(hydroxymethyl)-4α-methyl-1,4,4α,5,6,7-hexahydrocyclopenta[f]indazol-5-yl]ethanol]: the “Transactivation A549 Cells GRAMMER Emax (%)” value is recorded as 56.2% and the EC50 turned out to be 59.6 nM.
`C[C@]12Cc3cnn(-c4cccc(F)c4)c3C=C1CC[C@@]2(CO)CC(O)c1ccccn1` (single isomer, unassigned) [Example 19a]: the Emax was found to be 43.7% and the EC50 turned out to be 41.9 nM.

Values taken from patent US20120095055A1, “HEXAHYDROCYCLOPENTYL[f]INDAZOLE 5-HYDROXYMETHYL ETHANOLS AND DERIVATIVES THEREOF AS SELECTIVE GLUCOCORTICOID RECEPTOR MODULATORS” (Merck Sharp & Dohme, Corp., priority 2009, published 2012).
